Experimental data from publication PMC6219668 (Oncotarget, 2018).

System: panel of nearly 500 cancer cell lines
Experiment: Cancer Cell Line Encyclopedia profiling, 3-day CellTiter-Glo
Format: cell-based
Settings: Homo sapiens

CN(C)C(=O)c1cc2cnc(Nc3ccc(N4CCNCC4)cn3)nc2n1C1CCCC1 [Ribociclib, 7-cyclopentyl-2-(5-piperazin-1-yl-pyridin-2-ylamino)-7H-pyrrolo[2,3-d]pyrimidine-6-carboxylic acid dimethylamide]
IC50 (NCI-H1666): > 8 µM
EC50 (NCI-H1693): 0.351 µM
IC50 (NCI-H1693): > 8 µM
EC50 (NCI-H1694): > 8 µM
IC50 (NCI-H1694): > 8 µM
EC50 (NCI-H1703): 1.11 µM
IC50 (NCI-H1703): > 8 µM
EC50 (NCI-H1792): > 8 µM
IC50 (NCI-H1792): > 8 µM
EC50 (NCI-H1793): 0.00418 µM
IC50 (NCI-H1793): > 8 µM
EC50 (NCI-H1944): 2.5 µM
IC50 (NCI-H1944): > 8 µM
EC50 (NCI-H1975): 1.05 µM
IC50 (NCI-H1975): > 8 µM
EC50 (NCI-H2009): > 8 µM
IC50 (NCI-H2009): > 8 µM
EC50 (NCI-H2030): 1.29 µM
IC50 (NCI-H2030): > 8 µM
EC50 (NCI-H2052): 0.0207 µM
IC50 (NCI-H2052): > 8 µM
EC50 (NCI-H2087): 0.338 µM
IC50 (NCI-H2087): > 8 µM
EC50 (NCI-H2122): > 8 µM
IC50 (NCI-H2122): 3.73 µM
EC50 (NCI-H2170): > 8 µM
IC50 (NCI-H2170): > 8 µM
EC50 (NCI-H2228): > 8 µM
IC50 (NCI-H2228): > 8 µM
EC50 (NCI-H2286): 0.506 µM
IC50 (NCI-H2286): > 8 µM
EC50 (NCI-H2444): > 8 µM
IC50 (NCI-H2444): > 8 µM
EC50 (NCI-H2452): 0.3 µM
IC50 (NCI-H2452): > 8 µM
EC50 (NCI-H3255): > 8 µM
IC50 (NCI-H3255): > 8 µM
EC50 (NCI-N87): > 8 µM
IC50 (NCI-N87): > 8 µM
EC50 (NUGC-3): > 8 µM
IC50 (NUGC-3): > 8 µM
EC50 (NUGC-4): 0.212 µM
IC50 (NUGC-4): 1.07 µM
EC50 (OC-314): > 8 µM
IC50 (OC-314): > 8 µM
EC50 (OCI-AML2): 0.838 µM
IC50 (OCI-AML2): 1.16 µM
EC50 (OCI-AML-5): 0.187 µM
IC50 (OCI-AML-5): > 8 µM
EC50 (OCI-Ly10): > 8 µM
IC50 (OCI-Ly10): > 8 µM
EC50 (OE33): > 8 µM
IC50 (OE33): > 8 µM
EC50 (OV-90): 0.0694 µM
IC50 (OV-90): > 8 µM
EC50 (OVCAR-3): > 8 µM
IC50 (OVCAR-3): > 8 µM
EC50 (OVCAR-4): > 8 µM
IC50 (OVCAR-4): > 8 µM
EC50 (OVCAR-8): > 8 µM
IC50 (OVCAR-8): > 8 µM
EC50 (OVSAHO): > 8 µM
IC50 (OVSAHO): > 8 µM
EC50 (P3HR-1): > 8 µM
IC50 (P3HR-1): > 8 µM
EC50 (P12-Ichikawa): 0.797 µM
IC50 (P12-Ichikawa): 3.74 µM
EC50 (P31-FUJ): > 8 µM
IC50 (P31-FUJ): > 8 µM
EC50 (PANC-03-27): > 8 µM
IC50 (PANC-03-27): > 8 µM
EC50 (PC-14): 4.03 µM
IC50 (PC-14): > 8 µM
EC50 (PLC-PRF-5): > 8 µM
IC50 (PLC-PRF-5): > 8 µM
EC50 (PSN1): 2.03 µM
IC50 (PSN1): > 8 µM
EC50 (Panc 02.03): > 8 µM
IC50 (Panc 02.03): > 8 µM
EC50 (Panc 04.03): > 8 µM
IC50 (Panc 04.03): > 8 µM
EC50 (Panc1005): > 8 µM
IC50 (Panc1005): > 8 µM
EC50 (Pfeiffer): > 8 µM
IC50 (Pfeiffer): > 8 µM
EC50 (RL95-2): 3.35 µM
IC50 (RL95-2): > 8 µM
EC50 (RPMI 8402): 0.951 µM
IC50 (RPMI 8402): 1.54 µM
EC50 (RPMI-7951): 0.807 µM
IC50 (RPMI-7951): > 8 µM
EC50 (RT-112): 0.545 µM
IC50 (RT-112): > 8 µM
EC50 (RVH-421): > 8 µM
IC50 (RVH-421): > 8 µM
EC50 (Raji): > 8 µM
IC50 (Raji): > 8 µM
EC50 (SAOS-2): > 8 µM
IC50 (SAOS-2): > 8 µM
EC50 (SBC-5): 2.3 µM
IC50 (SBC-5): > 8 µM
EC50 (SCC-9): 0.00254 µM
IC50 (SCC-9): > 8 µM
EC50 (SCaBER): 1.95 µM
IC50 (SCaBER): > 8 µM
EC50 (SF-126): > 8 µM
IC50 (SF-126): > 8 µM
EC50 (SF-295): 0.323 µM
IC50 (SF-295): > 8 µM
EC50 (SHP77): > 8 µM
IC50 (SHP77): > 8 µM
EC50 (SIG-M5): 0.0796 µM
IC50 (SIG-M5): 0.22 µM
EC50 (SJRH30): > 8 µM
IC50 (SJRH30): > 8 µM
EC50 (SJSA-1): 1.18 µM
IC50 (SJSA-1): > 8 µM
EC50 (SK-BR-3): > 8 µM
IC50 (SK-BR-3): > 8 µM
EC50 (SK-CO-1): 2.76 µM
IC50 (SK-CO-1): > 8 µM
EC50 (SK-ES1): 0.0436 µM
IC50 (SK-ES1): > 8 µM
EC50 (SK-HEP1): 0.373 µM
IC50 (SK-HEP1): > 8 µM
EC50 (SK-LMS-1): 1.26 µM
IC50 (SK-LMS-1): > 8 µM
EC50 (SK-LU-1): 0.682 µM
IC50 (SK-LU-1): > 8 µM
EC50 (SK-MEL-2): > 8 µM
IC50 (SK-MEL-2): > 8 µM
IC50 (SK-MEL-5): > 8 µM
EC50 (SK-MEL-24): > 8 µM
IC50 (SK-MEL-24): > 8 µM
EC50 (SK-MEL-30): > 8 µM
IC50 (SK-MEL-30): > 8 µM
EC50 (SK-MES-1): 5.26 µM
IC50 (SK-MES-1): 5.27 µM
EC50 (SK-MM-2): > 8 µM
IC50 (SK-MM-2): > 8 µM
EC50 (SK-N-AS): 0.457 µM
IC50 (SK-N-AS): > 8 µM
EC50 (SK-N-DZ): 0.88 µM
IC50 (SK-N-DZ): 3.44 µM
EC50 (SK-N-SH): > 8 µM
IC50 (SK-N-SH): 7.74 µM
EC50 (SK-OV-3): > 8 µM
IC50 (SK-OV-3): > 8 µM
EC50 (SKNBE2): 0.328 µM
IC50 (SKNBE2): 1.8 µM
EC50 (SNU1): 2.4 µM
IC50 (SNU1): > 8 µM
EC50 (SNU-16): > 8 µM
IC50 (SNU-16): > 8 µM
EC50 (SNU-182): > 8 µM
IC50 (SNU-182): > 8 µM
EC50 (SNU-387): > 8 µM
IC50 (SNU-387): > 8 µM
EC50 (SNU-398): 0.569 µM
IC50 (SNU-398): > 8 µM
EC50 (SNU-423): > 8 µM
IC50 (SNU-423): > 8 µM
EC50 (SNU-449): > 8 µM
IC50 (SNU-449): > 8 µM
EC50 (SNU-475): > 8 µM
IC50 (SNU-475): > 8 µM
EC50 (SNU-C2B): > 8 µM
IC50 (SNU-C2B): > 8 µM
EC50 (SU-DHL10): 5.75 µM
IC50 (SU-DHL10): 5.75 µM
EC50 (SU-DHL-4): 0.329 µM
EC50 (SU-DHL-6): 0.742 µM
IC50 (SU-DHL-6): > 8 µM
EC50 (SU-DHL-8): 1.6 µM
IC50 (SU-DHL-8): 3.73 µM
EC50 (SU.86.86): > 8 µM
IC50 (SU.86.86): > 8 µM
EC50 (SUP-T1): > 8 µM
IC50 (SUP-T1): > 8 µM
EC50 (SW48): 0.0194 µM
IC50 (SW48): > 8 µM
EC50 (SW480): 6.21 µM
IC50 (SW480): > 8 µM
EC50 (SW780): 0.159 µM
IC50 (SW780): > 8 µM
EC50 (SW900): 0.385 µM
IC50 (SW900): > 8 µM
EC50 (SW1088): > 8 µM
IC50 (SW1088): > 8 µM
EC50 (SW1353): > 8 µM
IC50 (SW1353): > 8 µM
EC50 (SW1417): > 8 µM
IC50 (SW1417): > 8 µM
EC50 (SW1573): 0.324 µM
IC50 (SW1573): > 8 µM
EC50 (SW1990): 0.593 µM
IC50 (SW1990): > 8 µM
EC50 (SW-403): > 8 µM
IC50 (SW-403): 4.34 µM
EC50 (SW-620): 0.45 µM
IC50 (SW-620): > 8 µM
EC50 (T47D): > 8 µM
IC50 (T47D): > 8 µM
EC50 (T98G): > 8 µM
IC50 (T98G): > 8 µM
